Results published in patent EP1733731A1, “New uses of Glycerol derivatives in particular in cosmetics” (AGRO INDUSTRIE RECHERCHES ET DEVELOPPEMENTS (A.R.D.), priority 2005, dated 2006).

Experiments:
plasmine humaine [1] = target: T1, plasmine humaine (Homo sapiens, UniProt P00747); assay: amidolytic activity of plasmin on synthetic substrate S-2251; format: biochemical
T1 construct: connus pour interagir avec la plasmine via son domaine kringle V; testé in vitro sur l'activité amidolytique de la plasmine à l'aide d'un substrat synthétique (S-2251, Chromogénix)
Protocol: L'effet de ces différentes fractions et produits purs a donc été testé in vitro sur l'activité amidolytique de la plasmine à l'aide d'un substrat synthétique (S-2251, Chromogénix).
Les fractions ou composés purs issus de l'extraction sont solubilisés avant utilisation dans du diméthylsulfoxyde (DMSO) à une concentration de stockage de 20 mg/mL. La conservation est effectuée à -80°C. 12 nM de plasmine humaine sont pré-incubés en absence et en présence de concentrations croissantes (0 à 200 µg/mL) des différentes fractions et produits dans un tampon Tris-HCl 100 mM pH 7,5. La réaction est déclenchée par addition de 0,3 mM de S-2251. L'hydrolyse du S-2251 est suivie par mesure de l'absorbance du para-nitroaniline à 405 nm. La courbe représentant les variations d'absorbance en fonction du temps est tracée et la vitesse initiale de la réaction est déterminée par calcul de la pente de la tangente à l'origine. Le rapport Vi/Vo est calculé, où Vo représente la vitesse initiale en absence d'effecteur et Vi cette vitesse en présence d'un effecteur, et la courbe Vi/Vo en fonction de la concentration en en glycolipides est tracée.

plasmine humaine [2] = target: T1, plasmine humaine; assay: activation of proMMP-3 by plasmin in vitro (western blot); format: biochemical; conditions: 25 µg/mL; 65 nM plasmin, 100 nM proMMP-3; Figure 1A-4
Protocol: (§1) • La Figure 1 représente la modulation de l'activation des proMMP-3 (Figures 1A et 1B) et proMMP-1 (Figure 1C) in vitro comme en culture par des extraits glycolipidiques du gluten de blé. • Figure 1A : 100 nM de proMMP-3 (Figure 1A-1) sont incubés avec 65 nM de plasmine en absence (Figure 1A-2) ou en présence de glycolipides (Figure 1A-3 et 4), à la concentration de 50µg/mL pour M1-Sucres (Figure 1A-3) et 25 µg/mL pour ED 23-11 (Figure 1A-4). • Figure 1B : des fibroblastes dermiques sont ensemencés en plaque 24 puits à raison de […] cellules par puits jusque confluence. Après une mise au repos de 18 heures, les cellules sont incubées en présence (Figure 1B-2, 3 et 4) ou non (Figure 1B-1) de 2,5 µg/mL de plasmine ainsi que des glycolipides M1(-Sucres) (Figure 1B-3) et ED 23-11 (Figure 1B-4) aux mêmes concentrations que précédemment. • Figure 1C : des fibroblastes dermiques sont ensemencés en plaque 24 puits à raison de […] cellules par puits jusque confluence. Après une mise au repos de 18 heures, les cellules sont incubées en présence (Figure 1C-2, 3 et 4) ou non (Figure 1C-1) de 2,5 µg/mL de plasmine ainsi que des glycolipides M1(-Sucres) (Figure 1C-3) et ED 23-11 (Figure 1C-4) aux mêmes concentrations que précédemment. Dans l'ensemble des figures 1A, 1B et 1C, la réaction est arrêtée aux temps indiqués par addition de 0,3 mg/ml d'aprotinine. […]

proMMP-3 = assay: activation of proMMP-3 by plasmin in cultured dermal fibroblasts (western blot); format: cell-based; conditions: 25 µg/mL; 2,5 µg/mL plasmin; Figure 1B-4
Protocol: as §1

[3] = test system: kératinocytes et fibroblastes dermiques; assay: degradation of a fluorescein-labelled type I collagen layer in a UV-A skin photo-ageing co-culture model; format: cell-based; conditions: 10 J.cm^-2 UV-A, 15 µg/mL plasminogen, 48 h, versus control without active, read-out: inhibition de ce "vieillissement cutané" (dégradation du tapis de collagène)

T1 sequence (P00747 97-580 limits assumed): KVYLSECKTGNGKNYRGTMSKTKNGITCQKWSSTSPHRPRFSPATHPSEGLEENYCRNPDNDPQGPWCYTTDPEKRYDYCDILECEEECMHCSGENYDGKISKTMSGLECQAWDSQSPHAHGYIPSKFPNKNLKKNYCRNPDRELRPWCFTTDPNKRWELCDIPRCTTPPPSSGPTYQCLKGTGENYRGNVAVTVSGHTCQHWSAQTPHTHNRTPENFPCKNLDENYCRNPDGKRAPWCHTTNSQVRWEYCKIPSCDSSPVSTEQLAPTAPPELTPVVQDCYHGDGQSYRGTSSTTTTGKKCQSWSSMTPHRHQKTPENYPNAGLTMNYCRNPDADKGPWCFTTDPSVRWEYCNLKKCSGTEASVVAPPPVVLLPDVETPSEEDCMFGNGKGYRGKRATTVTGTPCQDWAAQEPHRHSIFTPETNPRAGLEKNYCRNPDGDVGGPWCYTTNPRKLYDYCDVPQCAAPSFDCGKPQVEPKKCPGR
T1 sequence (P00747 581-810 limits assumed): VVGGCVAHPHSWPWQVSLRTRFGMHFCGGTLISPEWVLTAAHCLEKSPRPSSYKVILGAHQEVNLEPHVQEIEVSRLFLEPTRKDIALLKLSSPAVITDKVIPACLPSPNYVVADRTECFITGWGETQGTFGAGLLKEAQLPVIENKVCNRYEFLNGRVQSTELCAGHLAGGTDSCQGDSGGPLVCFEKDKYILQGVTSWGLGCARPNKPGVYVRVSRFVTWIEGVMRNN

Plasmine (Vi/Vo) (plasmine humaine [1]; 25 µg/mL, 12 nM plasmin, 0,3 mM S-2251): 2,11 ± 0,16
Action sur l'activité de la plasmme (Vi/V0) à isoconcentration (plasmine humaine [1]; at isoconcentration): 8,44
Augmentation d'activité (plasmine humaine [1]; plasmin amidolytic activity, increase from one fractionation step to the next): 2,36
activation de la proMMP-3 par la plasmine (plasmine humaine [2]): inhibition
SMILES: CCCCC/C=C\C/C=C\CCCCCCCCOC[C@H](CO[C@@H]1O[C@H](COC(=O)CCCCCCCCCCCCCCC)[C@H](O)[C@H](O)[C@H]1O)OCCCCCCCC/C=C\C/C=C\CCCCC [ED23-11, 1,2-di-O-linoléyl-3-O-[6'-O-palmitoyl-β-D-galactopyranosyl]-sn-glycérol]
activation de la proMMP-3 (proMMP-3): inhibition significative
inhibition at 25 µg/mL [3]: 70%
